Test results: patent publication US4304778A, “4-Aminoquinazoline derivatives having fungicidal, anti-insect and acaricidal properties” (Sankyo Company Limited, priority 1978, dated 1981)

What was measured:
Phytophthora infestans = format: in vivo; conditions: tomato late blight; 500 ppm; after 5 days; average per leaf
Alternalia solani = test: Effect on early blight in tomatoes; format: in vivo; conditions: tomato early blight; 500 ppm; 3 days in greenhouse
Procedure: (§1) In the following Examples, wettable powders prepared according to the procedures of Example 4 were used, each powder containing 50% by weight of the active compound of this invention.
Groups of tomato plants (variety Shinfukuju) were planted, two per pot, in a series of Wagner pots (diameter 12 cm) and used for the following test when at the 5 to 6 leaf stage. Each pot was treated with 30 ml of an aqueous suspension containing 500 ppm of one of the active compounds shown in Table 3, applied to the plants by spraying over their stems and leaves. After air-drying the plants, a spore suspension of the pathogenic microorganism Alternalia solani was sprayed over each plant, and the plants were kept in a wet room for 24 hours at 20°-22° C. and 100% relative humidity. The pots were then placed in a greenhouse for 3 days. All leaves were then examined for signs of the disease and the number of disease spots per leaf was calculated, using three pots for each compound.

[1] = test system: Colletotrichum lagenarium; test: Effect on anthracnose in cucumbers; format: in vivo; conditions: cucumber anthracnose; 500 ppm; seven days; cotyledon and first leaf
Procedure: as §1
Groups of cucumber plants (variety Sagamihanshiro) were planted, two per pot, in a series of Wagner pots (diameter 12 cm) and were used as host plants when the first leaf was fully grown and open. Each test group of three pots was treated with one of the active compounds shown in Table 4 by spraying an aqueous suspension containing 500 ppm of the active compound onto the plants at the rate of 30 ml per 3 pots. After air-drying the plants, a spore suspension of the pathogenic microorganism Colletotrichum lagenarium was sprayed onto the plants and the plants were kept in a wet room for 24 hours at 20°-22° C. and 100% relative humidity. The pots were then placed in a greenhouse at 26° C. and, seven days after the spore suspension had been sprayed on, the percentage diseased area of the cotyledon and the first leaf was calculated.

Sphaerotheca fuliginea = test: Effect on powdery mildew in cucumbers; format: in vivo; conditions: cucumber powdery mildew; 500 ppm; 10 days
Procedure: as §1
Cucumber seedlings (variety Sagamihanshiro), planted two per 12 cm diameter pot, were used as host plants at the stage when the first leaf was fully grown and open. Each test group of three pots was treated with one of the active compounds shown in Table 5 by spraying an aqueous suspension containing 500 ppm of the active compound onto the plants at the rate of 20 ml per 3 pots. After air-drying the plants, the host plants were inoculated with the microorganism Sphaerotheca fuliginea by brushing already infected cucumber leaves with a small brush and letting the microorganism fall onto the host plants. The inoculated plants were kept in a greenhouse at 24°-26° C. for 10 days. At the end of this time, the percentage diseased area was measured.

guppies = test: Toxicity to guppies; format: in vivo; conditions: LC50 after 48 hours classified
Procedure: In this example the toxicity of the compounds of the invention towards guppies was estimated and is compared with that of corresponding compounds as disclosed and claimed in our co-pending U.S. Application No. 910,117 filed May 30, 1978. The LC50 was determined after 48 hours and the toxicity to guppies was classified into the rankings (i), (ii) and (iii) according to the following classification scheme: […]

cockroach larvae = conditions: 24 hours; 25° C.
Piricularia oryzae = format: in vivo; conditions: rice blast; 500 ppm spray; mean, upper two leaves
[2] = test system: third instar larvae of the tobacco cutworm; test: Repellent action against the third instar larvae of the tobacco cutworm; format: in vivo; parameters: key: -: no ingestion; ±: very little ingestion; +: some ingestion; ++: considerable ingestion; conditions: cabbage leaves dipped in 500 ppm, 72 hours
From the text: as §1
Cabbage leaves were dipped for 30 seconds in an aqueous suspension containing 500 ppm of one of the active compounds shown in Table 6. After air-drying, each leaf was placed into a plastic receptacle having a diameter of 8 cm and the third instar larvae (10 per receptacle) of the tobacco cutworm were released onto the leaves. After 72 hours, the extent of ingestion of the leaves was measured, using two receptacles for each test compound. The results are shown in Table 6, using the following notation (which is also employed, with the same meaning, in following Table 9): […]

[3] = test system: final instar larvae of the diamondback moth (Plutella xylostella); test: Repellent and emergence-inhibition effect on the final instar larvae of diamondback moths; format: in vivo; parameters: key to Extent of ingestion: -: no ingestion; ±: very little ingestion; +: some ingestion; ++: considerable ingestion; conditions: 72 hours; for pest or weed control at 500 ppm: Plutella xylostella, read-out: Emergence-inhibition rate (%); for Extent of ingestion: radish leaves dipped in 500 ppm
From the text: as §1
Leaves of the Japanese radish (Raphanus sativus) were dipped for 30 seconds into a liquid containing 500 ppm of one of the compounds shown in Table 9. After air-drying the leaves, each leaf was placed into a plastic icecream cup (diameter 8 cm) and 15 final instar larvae of the diamondback moth (Plutella xylostella) were placed into each cup. Each test was conducted in duplicate and the results were averaged.

| Structure (SMILES) | Diseased area (%) (Phytophthora infestans) | No. of disease spots per leaf (Alternalia solani) | Diseased area (%) [1] | Diseased area (%) (Sphaerotheca fuliginea) | Toxicity ranking (guppies) | Mortality rate (%), 0.5mg test cpd/10 cockroaches/bottle (cockroach larvae) | Mortality rate (%), 1mg test cpd/10 cockroaches/bottle (cockroach larvae) | No. of disease spots per leaf (Piricularia oryzae) | Extent of ingestion [2] | pest or weed control at 500 ppm [3] | Extent of ingestion [3] |
| --- | --- | --- | --- | --- | --- | --- | --- | --- | --- | --- | --- |
| Cc1ccccc1OCCN(C)c1ncnc2ccccc12 [Compound No. 1, 4-{N-methyl-N-[2-(2-methylphenoxy)ethyl]amino}-quinazoline] | 0% | 8 spots per leaf | 0% | 0% | ii (all fish dead at 10 ppm but alive at 0.5 ppm) |  |  |  |  |  |  |
| CCN(CCOc1ccccc1C)c1ncnc2ccccc12 [Compound No. 2, 4-{N-ethyl-N-[2-(2-methylphenoxy)ethyl]amino}quinazoline] | 3% | 16 spots per leaf | 0% | 0% | ii (all fish dead at 10 ppm but alive at 0.5 ppm) | 90% | 100% |  |  |  |  |
| Cc1ccccc1OCCN(c1ncnc2ccccc12)C1CCCCC1 [compound 9, 4-{N-cyclohexyl-N-[2-(2-methylphenoxy)ethyl]amino}quinazoline] | 13% | 15 spots per leaf |  |  |  |  |  |  |  |  |  |
| CCCCN(CCOc1ccccc1C)c1ncnc2ccccc12 [compound 10, 4-{N-butyl-N-[2-(2-methylphenoxy)ethyl]amino}quinazoline] |  | 4 spots per leaf |  | 0% |  |  |  |  |  |  |  |
| Cc1ccc(COCCN(C)c2ncnc3ccccc23)cc1 [compound 13, 4-{N-methyl-N-[2-(4-methylbenzyloxy)ethyl]amino}quinazoline] |  |  |  |  |  | 80% | 100% | 2.9 spots per leaf |  |  |  |
| CN(CCOCc1ccc(Cl)cc1)c1ncnc2ccccc12 [compound 14, 4-{N-[2-(4-chlorobenzyloxy)ethyl]-N-methylamino}quinazoline] |  |  |  |  |  |  |  | 1.5 spots per leaf |  |  |  |
| Cc1ccc(OCCN(C)c2ncnc3ccccc23)cc1 [compound 18, 4-{N-methyl-N-[2-(4-methylphenoxy)ethyl]amino}quinazoline] | 16% |  |  | 8% |  | 90% | 100% | 2.6 spots per leaf |  |  |  |
| C=CCN(CCOc1ccccc1C(C)C)c1ncnc2ccccc12 [compound 25, 4-{N-allyl-N-[2-(2-isopropylphenoxy)ethyl]amino}quinazoline] | 0% | 15 spots per leaf | 8% | 0% |  | 85% | 100% |  |  |  |  |
| C=CCN(CCOc1ccc(C)cc1C)c1ncnc2ccccc12 [compound 26, 4-{N-allyl-N-[2-(2,4-dimethylphenoxy)ethyl]amino}quinazoline] | 3% |  | 0% | 0% |  | 90% | 100% |  | ± to + | 80% | ± to + |
| CC(C)c1ccccc1OCCN(c1ncnc2ccccc12)C1CCCCC1 [compound 31, 4-{N-cyclohexyl-N-[2-(2-isopropylphenoxy)ethyl]amino}quinazoline] |  | 13 spots per leaf |  |  |  |  |  |  |  |  |  |
| CCN(CCOc1ccc(C)cc1C)c1ncnc2ccccc12 [compound 32, 4-{N-[2-(2,4-dimethylphenoxy)ethyl]-N-ethylamino}quinazoline] | 5% |  | 8% | 0% |  | 85% | 100% |  |  |  |  |
| Cc1ccc(OCCN(c2ncnc3ccccc23)C(C)C)c(C)c1 [compound 34, 4-{N-[2-(2,4-dimethylphenoxy)ethyl]-N-isopropylamino}quinazoline] | 0% | 15 spots per leaf |  | 10% |  |  |  |  |  |  |  |
| CCN(CCOc1ccc(Cl)cc1C)c1ncnc2ccccc12 [compound 38, 4-{N-[2-(4-chloro-2-methylphenoxy)ethyl]-N-ethylamino}quinazoline] | 13% |  |  | 0% |  | 90% | 100% |  | ± | 100% | - to ± |
| C=CCN(CCOc1ccc(Cl)cc1C)c1ncnc2ccccc12 [compound 43, 4-{N-allyl-N-[2-(4-chloro-2-methylphenoxy)ethyl]amino}quinazoline] | 11% |  |  | 0% |  | 90% | 100% |  | + | 70% | ± |
| CCCCCCN(CCOc1ccccc1C(C)C)c1ncnc2ccccc12 [compound 44, 4-{N-hexyl-N-[2-(2-isopropylphenoxy)ethyl]amino}quinazoline] |  |  |  |  |  |  |  | 3.1 spots per leaf |  |  |  |
| CCN(CCOc1cc(C(C)C)ccc1C)c1ncnc2ccccc12 [compound 47, 4-{N-ethyl-N-[2-(5-isopropyl-2-methylphenoxy)ethyl]amino}quinazoline] |  |  |  | 0% |  | 85% | 100% |  | ± to + | 90% | ± |
| CC=CCN(CCOc1ccccc1C(C)C)c1ncnc2ccccc12 [compound 51, 4-{N-(2-butenyl)-N-[2-(2-isopropylphenoxy)ethyl]amino}quinazoline] | 0% | 4 spots per leaf | 0% | 0% |  |  |  |  |  |  |  |
| C=C(C)CN(CCOc1ccccc1C(C)C)c1ncnc2ccccc12 [compound 52, 4-{N-[2-(2-isopropylphenoxy)ethyl]-N-(2-methylallyl)amino}quinazoline] | 13% |  | 8% | 0% | i (all fish alive at 10 ppm) |  |  |  |  |  |  |
| CCCCCCCCc1ccc(C)c(OCCN(C)c2ncnc3ccccc23)c1 [compound 56, 4-{N-methyl-N-[2-(2-methyl-5-octylphenoxy)ethyl]amino}quinazoline] |  |  |  |  |  |  |  | 3.2 spots per leaf |  |  |  |
| CCCCCCc1ccc(OCCN(C)c2ncnc3ccccc23)c(C)c1 [compound 57, 4-{N-[2-(4-hexyl-2-methylphenoxy)ethyl]-N-methylamino}quinazoline] |  |  |  |  |  | 90% | 100% |  | ± | 100% | - to ± |
